Key:
Assay in all cases: relative viability (nuclei count vs DMSO), 5 days (fraction); higher = more cells survive
A-427 = test system: A-427
How it was run: (§1)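 Cells from lung cancer lines were seeded into 1536-well plates and, one day later, dosed by pin tool. Treatments were either a single drug or a fixed dose of an anchor drug with five library-drug doses (not always all listed) in √10 steps. After 5 days, nuclei were stained in a one-step fixation (final 0.05% Triton X-100, 1% formaldehyde, 1 ug/ml Hoechst) and counted on 4× images, and relative viability is the treated-to-vehicle nuclei ratio, as the median of duplicate plates.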

ChaGo-K-1 = test system: ChaGo-K-1
How it was run: as §1

HCC-366 = test system: HCC-366
How it was run: as §1

NCI-H23 = test system: NCI-H23
How it was run: as §1

NCI-H2228 = test system: NCI-H2228
How it was run: as §1

HCC-78 = test system: HCC-78
How it was run: as §1

EMC-BAC-2 = test system: EMC-BAC-2
How it was run: as §1

NCI-H1793 = test system: NCI-H1793
How it was run: as §1

NCI-H1993 = test system: NCI-H1993
How it was run: as §1

NCI-H1734 = test system: NCI-H1734
How it was run: as §1

NCI-H2405 = test system: NCI-H2405
How it was run: as §1

NCI-H2126 = test system: NCI-H2126
How it was run: as §1

NCI-H2023 = test system: NCI-H2023
How it was run: as §1

HCC-15 = test system: HCC-15
How it was run: as §1

SK-LU-1 = test system: SK-LU-1
How it was run: as §1

HARA = test system: HARA
How it was run: as §1

LC-2-ad = test system: LC-2-ad
How it was run: as §1

NCI-H2009 = test system: NCI-H2009
How it was run: as §1

UMC-11 = test system: UMC-11
How it was run: as §1

ABC-1 = test system: ABC-1
How it was run: as §1

NCI-H838 = test system: NCI-H838
How it was run: as §1

NCI-H1944 = test system: NCI-H1944
How it was run: as §1

COR-L23 = test system: COR-L23
How it was run: as §1

NC(=O)Nc1cc(-c2cccc(F)c2)sc1C(=O)N[C@H]1CCCNC1 [AZD7762] + COc1cc2c(Oc3ccc(NC(=O)C4(C(=O)Nc5ccc(F)cc5)CC4)cc3F)ccnc2cc1OCCCN1CCOCC1 [Foretinib] (partner 0.25 µM)
relative viability (A-427; first compound 0.01 µM): 1.08 | relative viability (A-427; first compound 0.03162 µM): 0.976 | relative viability (A-427; first compound 0.1 µM): 1.03 | relative viability (A-427; first compound 0.3162 µM): 0.781 | relative viability (A-427; first compound 1 µM): 0.755 | relative viability (ChaGo-K-1; first compound 0.01 µM): 0.924 | relative viability (ChaGo-K-1; first compound 0.03162 µM): 0.937 | relative viability (ChaGo-K-1; first compound 0.1 µM): 1.02 | relative viability (ChaGo-K-1; first compound 0.3162 µM): 0.899 | relative viability (ChaGo-K-1; first compound 1 µM): 0.976 | relative viability (HCC-366; first compound 0.01 µM): 0.954 | relative viability (HCC-366; first compound 0.03162 µM): 0.927 | relative viability (HCC-366; first compound 0.1 µM): 0.978 | relative viability (HCC-366; first compound 0.3162 µM): 0.973 | relative viability (HCC-366; first compound 1 µM): 0.312 | relative viability (NCI-H23; first compound 0.01 µM): 0.886 | relative viability (NCI-H23; first compound 0.03162 µM): 1.09 | relative viability (NCI-H23; first compound 0.1 µM): 0.976 | relative viability (NCI-H23; first compound 0.3162 µM): 1.11 | relative viability (NCI-H23; first compound 1 µM): 0.366 | relative viability (NCI-H2228; first compound 0.01 µM): 0.851 | relative viability (NCI-H2228; first compound 0.03162 µM): 0.788 | relative viability (NCI-H2228; first compound 0.1 µM): 0.825 | relative viability (NCI-H2228; first compound 0.3162 µM): 0.828 | relative viability (NCI-H2228; first compound 1 µM): 0.265 | relative viability (HCC-78; first compound 0.01 µM): 0.619 | relative viability (HCC-78; first compound 0.03162 µM): 0.611 | relative viability (HCC-78; first compound 0.1 µM): 0.589 | relative viability (HCC-78; first compound 0.3162 µM): 0.682 | relative viability (HCC-78; first compound 1 µM): 0.578 | relative viability (EMC-BAC-2; first compound 0.01 µM): 1.08 | relative viability (EMC-BAC-2; first compound 0.03162 µM): 1 | relative viability (EMC-BAC-2; first compound 0.1 µM): 1.08 | relative viability (EMC-BAC-2; first compound 0.3162 µM): 1.04 | relative viability (EMC-BAC-2; first compound 1 µM): 0.89 | relative viability (NCI-H1793; first compound 0.01 µM): 0.732 | relative viability (NCI-H1793; first compound 0.03162 µM): 0.682 | relative viability (NCI-H1793; first compound 0.1 µM): 0.595 | relative viability (NCI-H1793; first compound 0.3162 µM): 0.8 | relative viability (NCI-H1793; first compound 1 µM): 0.608 | relative viability (NCI-H1993; first compound 0.01 µM): 0.772 | relative viability (NCI-H1993; first compound 0.03162 µM): 0.878 | relative viability (NCI-H1993; first compound 0.1 µM): 0.801 | relative viability (NCI-H1993; first compound 0.3162 µM): 0.821 | relative viability (NCI-H1993; first compound 1 µM): 0.708 | relative viability (NCI-H1734; first compound 0.01 µM): 0.979 | relative viability (NCI-H1734; first compound 0.03162 µM): 0.97 | relative viability (NCI-H1734; first compound 0.1 µM): 0.929 | relative viability (NCI-H1734; first compound 0.3162 µM): 0.807 | relative viability (NCI-H1734; first compound 1 µM): 0.436 | relative viability (NCI-H2405; first compound 0.01 µM): 1.13 | relative viability (NCI-H2405; first compound 0.03162 µM): 1.07 | relative viability (NCI-H2405; first compound 0.1 µM): 1.05 | relative viability (NCI-H2405; first compound 0.3162 µM): 1.03 | relative viability (NCI-H2405; first compound 1 µM): 0.67 | relative viability (NCI-H2126; first compound 0.01 µM): 1.23 | relative viability (NCI-H2126; first compound 0.03162 µM): 1.19 | relative viability (NCI-H2126; first compound 0.1 µM): 1.2 | relative viability (NCI-H2126; first compound 0.3162 µM): 1.28 | relative viability (NCI-H2126; first compound 1 µM): 1.26 | relative viability (NCI-H2023; first compound 0.01 µM): 0.788 | relative viability (NCI-H2023; first compound 0.03162 µM): 0.529 | relative viability (NCI-H2023; first compound 0.1 µM): 0.652 | relative viability (NCI-H2023; first compound 0.3162 µM): 0.393 | relative viability (NCI-H2023; first compound 1 µM): 0.098 | relative viability (HCC-15; first compound 0.01 µM): 1.06 | relative viability (HCC-15; first compound 0.03162 µM): 0.995 | relative viability (HCC-15; first compound 0.1 µM): 0.993 | relative viability (HCC-15; first compound 0.3162 µM): 1.06 | relative viability (HCC-15; first compound 1 µM): 0.983 | relative viability (SK-LU-1; first compound 0.01 µM): 1.01 | relative viability (SK-LU-1; first compound 0.03162 µM): 0.737 | relative viability (SK-LU-1; first compound 0.1 µM): 0.461 | relative viability (SK-LU-1; first compound 0.3162 µM): 0.185 | relative viability (SK-LU-1; first compound 1 µM): 0.145 | relative viability (HARA; first compound 0.01 µM): 0.888 | relative viability (HARA; first compound 0.03162 µM): 0.932 | relative viability (HARA; first compound 0.1 µM): 0.91 | relative viability (HARA; first compound 0.3162 µM): 0.866 | relative viability (HARA; first compound 1 µM): 0.197 | relative viability (LC-2-ad; first compound 0.01 µM): 1.15 | relative viability (LC-2-ad; first compound 0.03162 µM): 1.09 | relative viability (LC-2-ad; first compound 0.1 µM): 1.07 | relative viability (LC-2-ad; first compound 0.3162 µM): 1.18 | relative viability (LC-2-ad; first compound 1 µM): 0.756 | relative viability (NCI-H2009; first compound 0.01 µM): 1.25 | relative viability (NCI-H2009; first compound 0.03162 µM): 1.27 | relative viability (NCI-H2009; first compound 0.1 µM): 1.27 | relative viability (NCI-H2009; first compound 0.3162 µM): 1.13 | relative viability (NCI-H2009; first compound 1 µM): 0.962 | relative viability (UMC-11; first compound 0.01 µM): 1.04 | relative viability (UMC-11; first compound 0.03162 µM): 1.1 | relative viability (UMC-11; first compound 0.1 µM): 1.11 | relative viability (UMC-11; first compound 0.3162 µM): 0.765 | relative viability (UMC-11; first compound 1 µM): 0.384 | relative viability (ABC-1; first compound 0.01 µM): 1.22 | relative viability (ABC-1; first compound 0.03162 µM): 1.23 | relative viability (ABC-1; first compound 0.1 µM): 0.851 | relative viability (ABC-1; first compound 0.3162 µM): 0.402 | relative viability (ABC-1; first compound 1 µM): 0.212 | relative viability (NCI-H838; first compound 0.01 µM): 1.1 | relative viability (NCI-H838; first compound 0.03162 µM): 1.07 | relative viability (NCI-H838; first compound 0.1 µM): 1.04 | relative viability (NCI-H838; first compound 0.3162 µM): 0.992 | relative viability (NCI-H838; first compound 1 µM): 0.553 | relative viability (NCI-H1944; first compound 0.01 µM): 0.907 | relative viability (NCI-H1944; first compound 0.03162 µM): 0.975 | relative viability (NCI-H1944; first compound 0.1 µM): 1.06 | relative viability (NCI-H1944; first compound 0.3162 µM): 1.08 | relative viability (NCI-H1944; first compound 1 µM): 0.591 | relative viability (COR-L23; first compound 0.01 µM): 1.18 | relative viability (COR-L23; first compound 0.03162 µM): 0.955 | relative viability (COR-L23; first compound 0.1 µM): 1.08 | relative viability (COR-L23; first compound 0.3162 µM): 0.842 | relative viability (COR-L23; first compound 1 µM): 0.292

Reference: the supplement of paper PMC10307832
